In patent US4111945A, “Process for the preparation of 3,4,5-trimethoxy-phenyl-(1,4-dimethyl-1,2,3,6-tetrahydro-2-pyridyl)-carb inol” (Laboratories Made, S.A., priority 1976, dated 1978):

Columns and labels:
Assay type in all cases: in vivo
[1] = Acute toxicity, intraperitoneal (Litchfield-Wilcoxon); conditions: mouse, in vivo, ip, Swiss ICR mice of both sexes, 25 ± 2 g, read-out: Lethal Dose 50 (LD50)
Protocol: (§1) Acute toxicity studies were made in Swiss ICR mice of both sexes weighing 25 ± 2 g. The products were administered intraperitoneally. Acute toxicity calculations were made by the Litchfield-Wilcoxon method.

[2] = tested on: Swiss ICR albino mice; test: Thermal analgesia, hot-plate technique at 55° C.; conditions: for Jumping time (mean ± S.E.M.): 30 mg/kg, intraperitoneal, 30 minutes, hot-plate 55° C., control 50.1 ± 3.16
Protocol: The thermal analgesia effect was studied in Swiss ICR albino mice. The hot-plate technique at 55° C. was used. The […] were divided into batches of 10.
The products being studied were administered intraperitoneally and after 30 minutes the animals were placed on the hot-plate, the time in seconds being counted until the animals started to jump. Batches of control animals which had received injections of distilled water only were used.

[3] = tested on: Swiss ICR albino mice; test: Chemical analgesia, acetic acid writhing technique
Protocol: The analgesic effect was studied in Swiss ICR albino mice using the acetic acid writhing technique. The animals were divided into batches of 10.
The products studied were administered intraperitoneally and after 30 minutes 0.25 ml of 1% acetic acid was injected intraperitoneally. A batch of control animals was given only the acetic acid. The number of writhings made by each mouse in the 20 minutes after the administration of the acetic acid was counted.

[4] = tested on: Swiss ICR mice; test: Acute toxicity, intraperitoneal (Litchfield-Wilcoxon); conditions: Swiss ICR mice of both sexes, 25 ± 2 g
Protocol: as §1

COc1cc(C(O)C2CC(C)=CCN2C)cc(OC)c1OC (stereo not shown) [Product VIII, 3,4,5-trimethoxyphenyl-(1,4-dimethyl-1,2,3,6-tetrahydro-2-pyridyl)-carbinol]
LD50 [1]: 201 mg/kg
Jumping time (mean ± S.E.M.) [2]: 51.8 ± 5.46 s
thermal analgesic activity ([2]; conclusion in words): lacks thermal analgesic activity
No. of writhings (mean ± S.E.M.) ([3]; 30 mg./kg., intraperitoneal, 30 minutes before acetic acid, counted over 20 minutes, control 93): 58.8 ± 10.2
chemical analgesic activity ([3]; conclusion in words, compared with dextropropoxyphene): same intensity as dextropropoxyphene

CCC(=O)O[C@](Cc1ccccc1)(c1ccccc1)[C@H](C)CN(C)C [Dextropropoxyphene, dextropropoxyphene, reference compound]
Lethal Dose 50 (LD50) [4]: 140 mg/kg
Jumping time (mean ± S.E.M.) [2]: 91 ± 17.17 s
